# Measured values from patent US8946474B2, “Polymorphic form of a calcimimetic compound” (LEO Pharma A/S, priority 2010, dated 2015).
# “And” between values parts separate entries of the source, which are not always exact repeats. Identical values can stand only once.
# Key:
# Assay type in all cases: physicochemical
# [1] = Aqueous solubility as a function of pH; settings: for Solubility / solubility at 24 h: room temperature (25° C.), shaken 24 hours; for solubility at 24 h: 25 °C, thermodynamic from solid
# Protocol: In addition to the characterizing analyses by XRPD, XRC, DSC, ATR-FTIR and SS NMR discussed hereinabove, the solubility of {4-[(1R,3S)-3-((R)-1-Naphthalen-1-yl-ethylamino)-cyclopentyl]-phenoxy}-acetic acid Form C and X has been determined as function of pH and in MeOH.
# The aqueous solubility of Form C and Form X was determined as a function of pH at 25° C. in 0.1N HCl (pH 1.0) and in Sorensen phosphate buffers at pH 2.0, 4.0, 6.0 and 8.0. For each pH value two individual determinations were made. Form C or Form X was weighed out (11 mg for pH 1, 4 mg for pH 2-8) in scintillation vials and 4 ml 0.1N HCl or buffer was added. The vials were shaken for 24 hours at 25° C. After 24 hours it was checked that the vial still contained undissolved material. The suspensions were filtered through a 0.45 μm filter, which was first saturated with app. 0.5 ml filtrate. The resulting filtrates were diluted and analyzed by HPLC vs. a standard curve.
# [2] = Stress stability test for solid state transformation; settings: 60° C., 60° C./75% relative humidity and 80° C./75% relative humidity; 4 weeks
# Protocol: Polymorph Form C, Form X and mixtures of the two polymorphic forms C+X have all been tested at different conditions of temperature and relative humidity for signs of solid state transformation. The stress stability test was carried out at three sets of conditions: 60° C., 60° C./75% relative humidity and 80° C./75% relative humidity, and samples were analyzed after 1, 2 and 4 weeks, i.e. after 7, 14 and 28 days.
# One 1.8 ml amber screw top vial (27267-U, Supelco) containing between 50 and 100 mg {4-[(1R,3S)-3-((R)-1-Naphthalen-1-yl-ethylamino)-cyclopentyl]-phenoxy}-acetic acid was tested per individual set of conditions. The vials to be tested at 60° C. were closed with a PTFE lined black polypropylene solid cap (27416, Supelco) and placed in a thermostated heating cabinet. The vials to be tested at 60° C./75% relative humidity and 80° C./75% relative humidity were placed uncapped in a desiccator containing a saturated NaCl solution. The desiccator was subsequently placed in a thermostatted heating cabinet.
# The samples were analyzed at 1, 2 and 4 weeks for • 1. Visual appearance • 2. HPLC assay and impurities • 3. Polymorph characterization
# [3] = Thermo gravimetric analysis (TGA); settings: TGA trail of Graph 4b (Form X), ±2° C.
# Protocol: TGA experiments were conducted using a Perkin Elmer Pyris 1 TGA instrument. About 10-20 mg of sample was loaded into a ceramic pan for the measurements. The sample temperature was ramped from 25 to 350° C. at 10° C./min. Nitrogen was used as the purge gas at a flow rate of 40 mL/min.
Structure (SMILES),Solubility ([1]; pH 1.0 (0.1N HCl)),Solubility ([1]; pH 2.0 (Sorensen phosphate buffer)),Solubility ([1]; pH 4.0 (Sorensen phosphate buffer)),Solubility ([1]; pH 6.0 (Sorensen phosphate buffer)),Solubility ([1]; pH 8.0 (Sorensen phosphate buffer)),4 week stress stability test without any solid state transformation [2],"solubility at 24 h ([1]; 0.1N HCl, pH 1, simulated gastric fluid, pH 1.0 (0.1N HCl))","solubility at 24 h ([1]; Sorensen phosphate buffer, pH 2, aqueous buffer, pH 2.0 (Sorensen phosphate buffer))","solubility at 24 h ([1]; Sorensen phosphate buffer, pH 4, aqueous buffer, pH 4.0 (Sorensen phosphate buffer))","solubility at 24 h ([1]; Sorensen phosphate buffer, pH 6, aqueous buffer, pH 6.0 (Sorensen phosphate buffer))","solubility at 24 h ([1]; Sorensen phosphate buffer, pH 8, aqueous buffer, pH 8.0 (Sorensen phosphate buffer))",solubility compared to Form C ([1]; room temperature),stable towards degradation at temperatures below [3]
"C[C@@H](N[C@H]1CC[C@@H](c2ccc(OCC(=O)O)cc2)C1)c1cccc2ccccc12 [Form C, {4-[(1R,3S)-3-((R)-1-Naphthalen-1-yl-ethylamino)-cyclopentyl]-phenoxy}-acetic acid]",1225 µg/mL,394 µg/mL and 329 µg/mL,52 µg/mL and 53 µg/mL,43 µg/mL,55 µg/mL,passed,–,–,–,–,–,–,–
"C[C@@H](N[C@H]1CC[C@@H](c2ccc(OCC(=O)O)cc2)C1)c1cccc2ccccc12 [Form X, {4-[(1R,3S)-3-((R)-1-Naphthalen-1-yl-ethylamino)-cyclopentyl]-phenoxy}-acetic acid]",–,–,–,–,–,passed,1240 µg/mL,551 µg/mL,86 µg/mL,78 µg/mL,80 µg/mL,higher,–
"C[C@@H](N[C@H]1CC[C@@H](c2ccc(OCC(=O)O)cc2)C1)c1cccc2ccccc12 [{4-[(1R,3S)-3-((R)-1-Naphthalen-1-yl-ethylamino)-cyclopentyl]-phenoxy}-acetic acid]",–,–,–,–,–,passed,–,–,–,–,–,–,below 255 °C
